Columns and labels:
Neuraminidase = Neuraminidase (Influenza B virus (strain B/Lee/1940), UniProt P03474); experiment: Inhibitory activity was determined against Neuraminidase B/Memphis
influenza virus b [1] = experiment: Inhibitory activity was determined against Neuraminidase B/Memphis at 0.5 mM concentration
influenza virus b [2] = experiment: Inhibitory activity was determined against Neuraminidase B/Memphis at 1 mM concentration

Sequence of Neuraminidase (P03474 whole entry): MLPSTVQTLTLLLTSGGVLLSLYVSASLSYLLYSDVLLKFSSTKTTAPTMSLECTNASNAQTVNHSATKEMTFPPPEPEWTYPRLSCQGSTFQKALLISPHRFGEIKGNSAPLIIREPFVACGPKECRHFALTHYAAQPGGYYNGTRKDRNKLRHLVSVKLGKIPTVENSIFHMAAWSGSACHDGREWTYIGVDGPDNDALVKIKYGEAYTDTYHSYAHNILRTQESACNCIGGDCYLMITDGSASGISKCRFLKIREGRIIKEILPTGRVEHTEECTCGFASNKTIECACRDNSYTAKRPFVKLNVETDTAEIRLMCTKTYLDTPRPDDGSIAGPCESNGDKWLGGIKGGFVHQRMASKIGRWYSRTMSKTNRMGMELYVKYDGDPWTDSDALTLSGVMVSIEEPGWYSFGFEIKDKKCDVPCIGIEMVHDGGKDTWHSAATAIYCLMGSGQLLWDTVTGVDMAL

| Structure (SMILES) | IC50 (Neuraminidase) | further results |
| --- | --- | --- |
| CCN(C(=O)N1C[C@@H](C(=O)O)[C@@H](N)[C@@H]1CNC(C)=O)C(C)C | 340 µM |  |
| CCN(C(=O)N1C[C@@H](C(=O)O)[C@@H](N)[C@@H]1CNC(=O)C(F)(F)F)C(C)C [A-192558] | 8 µM |  |
| CCN(C(=O)N1C[C@@H](C(=O)O)[C@@H](N)[C@@H]1CNS(C)(=O)=O)C(C)C |  | inhibition (influenza virus b [1]): 38% |
| CCC(=O)NC[C@H]1[C@H](N)[C@H](C(=O)O)CN1C(=O)N(CC)C(C)C |  | inhibition (influenza virus b [2]): 26% |

— ChEMBL document CHEMBL1134391, “Design, synthesis, and structural analysis of influenza neuraminidase inhibitors containing pyrrolidine cores” (J Med Chem, 2001)
